Tests used:
[1] = Storage stability of purified crystalline CCI-779, HPLC strength; type: physicochemical
Text: The good crystallinity of the purified CCI-779 contributes to the improved stability of the purified CCI-779 and longer shelf life, and contains less oxidative impurities. In one embodiment, the purified crystalline CCI-779 of the present invention degrades less than about 3%, less than about 2%, or less than about 1% over a period of about 1 month. Desirably, the purified crystalline CCI-779 retains greater than 97% strength over a period of about 3 months, and more desirably about 6 months at about 5° C. as measured by high performance liquid chromatography (HPLC), among other techniques. The strength is similarly maintained at elevated temperatures up to about 70° C., desirably up to about 51° C., more desirably temperatures up to about 25° C. and greater relative humidities up to about 60%, and most desirably temperatures at about 5° C., or combinations thereof. In one embodiment, the purified crystallized CCI-779 prepared according to the present invention maintains its stability at a temperature of about 25° C. and relative humidity of about 60% for up to about 3 months, and more desirably up to about 6 months.
Following nucleation, the batch was aged for 34 minutes as indicated by the FBRM® instrument to obtain stabilization of the chord count. The pentanediol and heptane were added as described in Example 1. The isolated purified crystalline CCI-779 was washed and dried at 40 EC under vacuum for 48 hours. A yield of 176.3 g of purified crystalline CCI-779 was obtained (87.6%). See Table 1 for the HPLC data for the purified CCI-779 obtained immediately after crystallization and samples tested after 2 weeks and 1 month at varying conditions.
This example was performed using the same protocol as described in Example 2. However, filtration of the crude CCI-779 solution in acetone was completed in 30 minutes by using a medium grit fritted funnel. Following distillation of the acetone, the batch was held as an amorphous foam/oil for 2 hours under reduced pressures. Diethyl ether was then added to the foam/oil and the diethyl ether solution was evaluated for acetone content (8.5 vol %). The diethylether (containing acetone) was then removed by distillation to obtain an amorphous foam. This foam was maintained under reduced pressures for 30 minutes and diethyl ether again added. The diethylether was again monitored for acetone contact and determined to be less than 3.6 vol % acetone. The crystallization was the continued as in Example 2. The induction time for nucleation, i.e., the time required to obtain a chord count for particles of about 1 to about 5 μm particles of greater than about 1500 chords/s was 26 minutes. Following the nucleation, the slurry was stirred for additional time to ensure stabilization of the nucleation. Following isolation and drying as outlined above, a final yield of 175.1 g of purified crystalline CCI-779 was obtained (87.3%). See Table 2, for the HPLC data for the purified crystalline CCI-779 obtained immediately after crystallization and samples tested after 2 weeks and 1 month at varying conditions.

[2] = test system: histologically diverse tumor cells; settings: in vitro, cited from earlier work
human tumor xenografts = settings: nude mice; cited from earlier work
orthotopic glioma model = settings: nude mice; cited from earlier work
[3] = test system: human glioblastoma cell line; settings: in vitro; cited from earlier work

HPLC Strength ([1]; Example 2 batch, Initial (immediately after crystallization)): 101.09%
HPLC Strength ([1]; Example 2 batch, storage 5° C., 1 Month): 97.42%
HPLC Strength ([1]; Example 2 batch, storage 5° C., 2 Weeks): 101.09%
HPLC Strength ([1]; Example 2 batch, storage 25° C./60% RH, 1 Month): 97.87%
HPLC Strength ([1]; Example 2 batch, storage 25° C./60% RH, 2 Weeks): 101.07%
HPLC Strength ([1]; Example 3 batch, Initial (immediately after crystallization)): 100.45%
HPLC Strength ([1]; Example 3 batch, storage 5° C., 1 Month): 97.55%
HPLC Strength ([1]; Example 3 batch, storage 5° C., 2 Weeks): 100.45%
HPLC Strength ([1]; Example 3 batch, storage 25° C./60% RH, 1 Month): 97.81%
HPLC Strength ([1]; Example 3 batch, storage 25° C./60% RH, 2 Weeks): 101.30%
SMILES: CO[C@H]1C[C@@H]2CC[C@@H](C)[C@@](O)(O2)C(=O)C(=O)N2CCCC[C@H]2C(=O)O[C@H]([C@H](C)C[C@@H]2CC[C@@H](OC(=O)C(C)(CO)CO)[C@H](OC)C2)CC(=O)[C@H](C)/C=C(\C)[C@@H](O)[C@@H](OC)C(=O)[C@H](C)C[C@H](C)/C=C/C=C/C=C/1C [CCI-779, Rapamycin 42-ester with 3-hydroxy-2-(hydroxymethyl)-2-methylpropionic acid]
growth of tumor cells ([2]; CNS cancer, T-cell leukemia, breast, prostate, melanoma lines most sensitive): inhibit the growth
cell cycle effect [2]: arrested cells in the G1 phase
activity against human tumor xenografts of diverse histological types (human tumor xenografts): has activity
growth of several human pancreatic tumors and one of two breast cancer lines (human tumor xenografts): inhibited
activity in orthotopic glioma model (orthotopic glioma model): active
growth factor (platelet-derived)-induced stimulation of a human glioblastoma cell line [3]: markedly suppressed

Reference: patent US7553843B2, “Process for the preparation of purified crystalline CCI-779” (Wyeth, priority 2005, dated 2009)
